Test results from US20140248655A1, “QUANTITATIVE SOFT AGAR COLONY FORMATION ASSAY USING TETRAZOLIUM THAT GENERATES WATER-SOLUBLE FORMAZAN” (KAGOSHIMA UNIVERSITY, priority 2011, published 2014).

Test system: DU145 cells
Assay: Method of the invention: soft agar colony formation assay with WST-1, DU145
Format: cell-based, human
From the text: The […] compounds used may be able to function as ideal antitumor agents that have PCA-1 inhibitory effects, fewer (and less severe) side effects (cytotoxicity), and high tumor-shrinking effects.

CC(=O)O[C@H]1C(=O)[C@@]2(C)[C@H]([C@H](OC(=O)c3ccccc3)[C@]3(O)C[C@H](OC(=O)[C@H](O)[C@@H](NC(=O)c4ccccc4)c4ccccc4)C(C)=C1C3(C)C)[C@]1(OC(C)=O)CO[C@@H]1C[C@@H]2O [Paclitaxel]
cell viability (%) (DU145 10,000 cells/well, culture 1 week, concentrations of FIG. 2): lowered by Paclitaxel as an anticancer agent in a concentration-dependent manner | OD value (OD405) versus number of seeded cells (medium containing 100 μmol of Paclitaxel, culture 7 days, FIG. 1): the OD value was low, and it was not correlated with the number of cells
